Columns and labels:
Format in all cases: physicochemical
[1] = Viscosity measured using a Brookfield cone/plate viscometer
Method: (§1) Water solubilities were obtained from plots of light scattering (at 500 nm) of dispersions of the high-boiling solvent in water versus concentration. The light scattering density goes to zero at the solubility limit, when dispersions of high-boiling solvent are diluted. Values of log P calculated using MEDCHEM version 3.54 are also given in Table I and serve as rough indicators of water solubility. Viscosities reported in Table I were measured using a Brookfield cone/plate viscometer. Solvents of high polarity and/or polarizability are often needed to provide suitably bathochromic hues for the types of dyes commonly encountered in color photographic materials. Dye C1, whose structure is provided after Table I, is representative of such dyes. The visible absorption maxima (Lambda max) values for C1, measured with a Perkin Elmer Lambda 2S spectrophotometer, are provided in Table I as measures of solvent polarity/polarizability.

[2] = Visible absorption maximum (Lambda max) of Dye C1 in the high-boiling solvent, as measure of solvent polarity/polarizability; conditions: Perkin Elmer Lambda 2S spectrophotometer
Method: as §1, with “Values of log P calculated using MEDCHEM version 3.54 are also given in Table I and serve as rough indicators of water solubility.” left out

[3] = Water solubility from light scattering (at 500 nm) of dispersions of the high-boiling solvent in water
Method: as §1, with “Values of log P calculated using MEDCHEM version 3.54 are also given in Table I and serve as rough indicators of water solubility.” left out

[4] = Lambda max of the yellow dye produced from Coupler Y-1 on development; conditions: yellow dye from Y-1, at a blue density of about 1.0
Method: For this example, Coupler Y-1 (structure below) was dispersed and coated with comparative high-boiling solvent B1 and with high-boiling solvent A2 of this invention. The dispersions were prepared by adding an oil phase containing a 1:1:3 weight ratio of Y-1:high-boiling solvent: ethyl acetate to an aqueous phase containing gelatin and the dispersing agent ALKANOL XC (mixed isomers of triisopropyl-2-naphthalene sulfonic acid, sodium salt, DuPont) in a 10:1 weight ratio. The mixture was then passed through a colloid mill to disperse the oil in the aqueous phase as small particles. On coating, the ethyl acetate auxiliary solvent evaporates. […]
After hardening, samples of each of the films in Table II were given a sensitometric white light exposure and processed using the KODAK FLEXICOLOR C-41 procedure described in Table III. Measurements of status M blue density versus exposure were made for each processed film strip, and photographic contrast (gamma) was determined from the slopes of such plots. […] The gamma value of 2.45 obtained with solvent A2 of this invention in coating B is similar to the gamma value of 2.63 obtained from comparative solvent B1 in coating A. Spectra of the yellow dye produced from Y-1 on development were measured at a blue density of about 1.0 using a Perkin Elmer Lambda 2S spectrophotometer. […]

Structure (SMILES) | Viscosity [1] [centipoise] | Lambda max of Dye C1 [2] [nm] | Water Solubility [3] [µg/mL] | Lambda max [4] [nm]
CCCCC(CC)COC(=O)c1ccccc1 (centres unmarked) [B3, reference compound] | 6 | 661 | – | –
O=C(OCCc1ccccc1)c1ccccc1 [B4, reference compound] | – | – | 10 | –
O=C(OCCCCCOC(=O)c1ccccc1)c1ccccc1 [A4] | 70 | 674 | 2.4 | –
Cc1cccc(C(=O)OCCC(C)OC(=O)c2cccc(C)c2)c1 (centres unmarked) [A3] | 295 | 672 | 1.9 | –
Cc1ccc(C(=O)OCCC(C)OC(=O)c2ccc(C)cc2)cc1 (centres unmarked) [A1] | 265 | 672 | 1.2 | –
CCCCOC(=O)c1ccccc1C(=O)OCCCC [B1, dibutyl phthalate, reference compound] | – | – | – | 449
CCCCC(COC(=O)c1ccccc1)OC(=O)c1ccccc1 (centres unmarked) [A2] | 157 | 672 | 1.1 | 449
CCCC(COC(=O)c1ccccc1)OC(=O)c1ccccc1 (centres unmarked) [A5] | 122 | 673 | 1.5 | –
